According to patent US20160108414A1, “GROWTH-RELATED ENOX PROTEINS FROM PLANTS WITH YIELD ENHANCEMENT POTENTIAL, SEQUENCES AND METHODS” (Mor-NuCo Enterprises, Inc., priority 2013, published 2016):
Residue numbers refer to the chain shown, from its start. Names may count otherwise.

How the values were obtained:
Format in all cases: biochemical
[1] = biological target: T1, recombinant ABP-20 (Prunus persica, UniProt O04011, DUP151-151); assay: NADH oxidase activity of IEF-purified recombinant ABP-20 (dNOX); settings: for NADH oxidase activity: average of 3 determinations ± SD, None = 0.1 ± 0.08; for optimum concentration for activation: higher concentration less effective
T1 construct: made in house; host or cells: E. coli BL21 (DE3), pET11b
Experimental: (§1) Oxidation of NADH was determined spectrophotometrically from the disappearance of NADH measured at 340 nm in a reaction mixture containing 25 mM Tris-MES (pH 7.2), 100 μM GSH, 1 mM KCN to inhibit mitochondrial oxidase activity, 150 μM NADH and the enzyme at 37° C. with temperature control (±0.5° C.) and stirring. Prior to assay, 1 μM reduced glutathione was added to reduce the protein in the presence of substrate. After 10 min, 0.03% hydrogen peroxide was added to reoxidize the protein under renaturing conditions and in the presence of substrate to start the reaction. Activities were measured using paired Hitachi U3210 or paired SLM Aminco 2000 spectrophotometers both with continuous recording. Assays were run for 1 min and were repeated on the same sample at intervals of 1.5 min for the times indicated. An extinction coefficient of 6.22 cm^−1 mM^−1 was used to determine specific activity.
Cells were centrifuged at 5,000 g for 6 min. Pellets were then resuspended in 20 mM Tris-HCl, pH 8.0, containing 0.5 mM PMSF, 1 mM benzamidine and 1 mM 6-aminocaproic and lysed by three passages through a French pressure cell (SLM Aminco) at 20,000 psi. Expression of the recombinant ABP-20 of about 20 kDa was confirmed by SDS-PAGE with silver staining. Transformed cells were stored at −80° C. in a standard glycerol stock solution. The recombinant proteins were further purified on Criterion IEF gels (Bio-Rad, Hercules, Calif.). The IEF gel was cut into seven equal segments. The pH represented by each slice was based on IEF standards (Bio-Rad). The slices were soaked in 15 mM Tris-Mes buffer, pH 7, at 4° C. for overnight with shaking. The gel-free extracts were assayed for ENOX activities as follows: […]

[2] = tested on: recombinant Arabidopsis ENOX1; assay: NADH oxidase activity of IEF-purified recombinant Arabidopsis ENOX1; settings: for NADH oxidase activity: average of 3 determinations ± SD, None = 2.7 ± 0.4; for Effect on ENOX1 activity eluted from the IEF gel: concentrations of Table 5
Experimental: Cells were centrifuged at 5,000 g for 6 min. Pellets were then resuspended in 20 mM Tris-HCl, pH 8.0, containing 0.5 mM PMSF, 1 mM benzamidine and 1 mM 6-aminocaproic and lysed by three passages through a French pressure cell (SLM Aminco) at 20,000 psi. Expression of the recombinant Arabidopsis ENOX1 of about 14 kDa was confirmed by SDS-PAGE with silver staining. Transformed cells were stored at −80° C. in a standard glycerol stock solution. The Arabidopsis ENOX1 proteins were further purified on Criterion IEF gels (Bio-Rad, Hercules, Calif.). The IEF gel was cut into seven equal segments. The pH represented by each slice was based on IEF standards (Bio-Rad). The slices were soaked in 15 mM Tris-Mes buffer, pH 7, at 4° C. for overnight with shaking. The gel-free extracts were assayed for ENOX1 activity.
as §1
IEF purified ENOX1 was concentrated to 0.7 mg/ml by using a Centricon concentrator (Millipore Corporation, Danvers, Mass.) fitted with a 10,000 nominal molecular weight limit ultracel YM membrane. Samples (50 μl) were combined with 1 μl of trifluoroacetic acid (TFA) in the presence or absence of 15 μl 10 mM bathocuproine. After 2 h of incubation at room temperature, the samples were dialyzed (Spectra/Pro Dialysis membrane, molecular weight cut-off 6-8,000, Spectrum Laboratories (Rancho Dominguez, Calif.) against 20 mM Tris-HCl, pH 8, at 4° C. overnight.

[3] = tested on: dNOX of soybean; assay: Stimulation of NOX activity of soybean plasma membranes (dNOX of soybean); settings: 1 μM
[4] = tested on: dNOX (ABP-20); assay: NADH oxidation of dNOX (ABP-20) site-directed mutants
Experimental: as §1
(§2) Amino acids indicated were replaced by alanines by site-directed mutagenesis according to Braman et al. (Braman, J., Papworth, C. and Greener, A. 1996. Methods Mol. Biol. 57:32-44). Numbered amino acids and nucleotide positions of splice variant products refer to numbers assigned to amino acids of the full length transcript

[5] = tested on: dNOX (ABP-20); assay: DTDP (protein disulfide-thiol) interchange of dNOX (ABP-20) site-directed mutants
Experimental: Protein disulfide-thiol interchange was determined spectrophotometrically from the increase in absorbance at 340 nm resulting from the cleavage of dithiodipyridine (DTDP (Morré, D. J., Gomez-Rey, M. L., Schramke, C., Em, O., Lawler, J., Hobeck, J. and Morré, D. M. 1999. Mol. Cell. Bochem. 200: 7-13). DTDP cleavage was buffered (50 mM Tris-MES, pH 7). The assay was preincubated (1 h at room temperature) with 0.5 μmoles 2,2′-dithiodipyridine (DTDP) in 5 μl of DMSO to react with endogenous reductants present with the plasma membranes. After 10 min, a further […] DTDP were added in 35 μl DMSO to start the reaction. The final reaction volume was […]. The reaction was monitored from the increase in absorbance at 340 nm. Specific activities were calculated using a milimolar absorption coefficient of 6.21.
as §2

## O=C(O)COc1cccc(Cl)c1Cl [2,3-dichlorophenoxyacetic acid]
[1]
  Effect on activity of recombinant ABP-20: without effect
[1]; addition 1 μM
  NADH oxidase activity: 0.15 ± 0.01 µmol/min/mg

## O=C(O)COc1ccc(Cl)cc1Cl [2,4-dichlorophenoxyacetic acid]
[2]; addition 1 μM
  NADH oxidase activity: 3.7 ± 0.1 µmol/min/mg
[2]
  Effect on ENOX1 activity eluted from the IEF gel: without effect
[1]; 1 μM auxin, IEF-purified fractions
  average specific activity: ~0.6±0.2 μmoles/min/mg protein
[1]; addition 1 μM
  NADH oxidase activity: 0.8 ± 0.2 µmol/min/mg
[1]
  optimum concentration for activation: about 1 μM
[3]
  stimulation of NOX activity of soybean plasma membranes (dNOX): approximately two-fold

## COc1cc(CNC(=O)CCCC/C=C/C(C)C)ccc1O [Capsaicin]
[2]; addition 1 μM
  NADH oxidase activity: 3.7 ± 0.1 µmol/min/mg
[2]
  Effect on ENOX1 activity eluted from the IEF gel: no inhibition was observed

## N.N.[Cl][Pt][Cl] [Cis-platinum]
[2]
  Effect on ENOX1 activity eluted from the IEF gel: no inhibition was observed
[2]; inhibitor 100 μM
  NADH oxidase activity: 3.5 ± 0.002 µmol/min/mg
[1]
  Effect on activity of recombinant ABP-20: inhibited the activity
[1]; addition 1 μM
  NADH oxidase activity: 0.2 ± 0.05 µmol/min/mg

## COc1cccc2c1C(=O)c1c(O)c3c(c(O)c1C2=O)C[C@@](O)(C(=O)CO)C[C@@H]3O[C@H]1C[C@H](N)[C@H](O)[C@H](C)O1 [Doxorubicin]
[1]
  Effect on activity of recombinant ABP-20: inhibited the activity
[1]; addition 1 μM
  NADH oxidase activity: 0.2 ± 0.05 µmol/min/mg

## O=C(O[C@@H]1Cc2c(O)cc(O)cc2O[C@@H]1c1cc(O)c(O)c(O)c1)c1cc(O)c(O)c(O)c1 [EGCg]
[2]
  Effect on ENOX1 activity eluted from the IEF gel: no inhibition was observed
[2]; inhibitor 500 μM
  NADH oxidase activity: 3.9 ± 0.05 µmol/min/mg

## O=C(O)c1cc(O)c(O)c(O)c1 [Gallic acid]
[2]; inhibitor 100 μM
  NADH oxidase activity: 3.0 ± 0.5 µmol/min/mg

## CC1=CC(=O)[C@@H](O)[C@]2(C)[C@H]3[C@@]4(O)OC[C@]35[C@H]([C@@H](C)[C@H]4O)[C@@H](O)C(=O)O[C@@H]5C[C@@H]12 [Glaucarubolone]
[1]
  Effect on activity of recombinant ABP-20: inhibited the activity
[1]; addition 1 μM
  NADH oxidase activity: 0.2 ± 0.06 µmol/min/mg

## O=C(O)Cc1c[nH]c2ccccc12 [Indole-3-acetic acid]
[1]; addition 1 μM
  NADH oxidase activity: 0.8 ± 0.05 µmol/min/mg
[1]
  optimum concentration for activation: about 1 μM

## CC(=O)Nc1cc(NS(=O)(=O)C(F)(F)F)c(C)cc1C [Mefluidide, N-[2,4-Dimethyl-5-[[(trifluoromethyl)sulfonyl]amino]phenyl] acetamide]
[2]
  Effect on ENOX1 activity eluted from the IEF gel: inhibited
[2]; inhibitor 100 μM
  NADH oxidase activity: 1.8 ± 0.15 µmol/min/mg

## O=C(O)c1cc[c]([Hg][Cl])cc1 [PCMB]
[1]
  Effect on activity of recombinant ABP-20: inhibited
[1]; addition 100 μM
  NADH oxidase activity: 0.1 ± 0.05 µmol/min/mg

## O=S(=O)(O)c1cc[c]([Hg][Cl])cc1 [PCMS]
[1]
  Effect on activity of recombinant ABP-20: inhibited
[1]; addition 100 μM
  NADH oxidase activity: 0.3 ± 0.2 µmol/min/mg

## CC[C@@H](C)C(=O)O[C@H]1C(=O)O[C@@H]2C[C@H]3C(C)=CC(=O)[C@@H](O)[C@]3(C)[C@H]3[C@@H](O)[C@H](O)[C@]4(C)OC[C@]32[C@@H]14 [Simalikalactone D]
[2]; addition 1 μM
  NADH oxidase activity: 0.9 ± 0.1 µmol/min/mg
[2]
  Effect on ENOX1 activity eluted from the IEF gel: inhibited
[1]
  Effect on activity of recombinant ABP-20: without effect
[1]; addition 1 μM
  NADH oxidase activity: 0.65 ± 0.07 µmol/min/mg

## CCS(=O)(=O)c1nc2ccccn2c1S(=O)(=O)NC(=O)Nc1nc(OC)cc(OC)n1 [Sulfonsulfuron]
[2]
  Effect on ENOX1 activity eluted from the IEF gel: inhibited
[2]; inhibitor 100 μM
  NADH oxidase activity: 1.2 ± 0.5 µmol/min/mg

## OCCc1ccc(O)cc1 [Tyrosol]
[2]; inhibitor 10 μM
  NADH oxidase activity: 3.4 ± 0.2 µmol/min/mg

## Cc1cc(-c2ccccc2)c2ccc3c(-c4ccccc4)cc(C)nc3c2n1 [bathocuproine]
[2]; assayed with TFA and bathocuproine, FIG. 12
  NADH oxidase activity, 24 min period: much reduced
[1]; trifluoroacetic acid plus bathocuproine, FIG. 30B
  dNOX activity after unfolding: activity was lost

## [2H]O[2H] [heavy water, Deuterium Oxide]
[2]; assayed in heavy water, normal period 24 min
  Period length of ENOX1 activity: about 30 min

## COc1ccc2[nH]cc(CCNC(C)=O)c2c1 [melatonin]
[2]; 1 μM melatonin
  New maximum after melatonin addition (phasing of 24 min period): 24 min

## Trans-platinum
[1]
  Effect on activity of recombinant ABP-20: without effect
[1]; addition 1 μM
  NADH oxidase activity: 0.7 ± 0.1 µmol/min/mg

B1: G59A: ABP-20 with G59 replaced by alanine (adenine nucleotide binding motif) (protein, UniProt O04011 24-214, looked up, variant G59A)
Auxin-binding protein ABP20: AVQDFCVADLAAPEGPAGFSCKKPASVKVNDFVFSALGIAGNTSNIIKAAVTPAFVAQFPGVNGLGISIARLDLAVGGVVPFHTHPGASEVLIVAQGTICAGFVASDNTPYLQTLEKGDIMVFPQGLLHFQVNGGEAPALAFASFGSASPGLQILDFALFKNDLPTEVIAQTTFLDAAQIKKLKGVLGGTN
[4]
  Effect of replacement on NADH oxidation: largely eliminated NADH oxidation
  NADH Oxidation: 0.06 ± 0.02 μmoles/min/mg protein
[5]
  DTDP Interchange: 0.07 ± 0.02 μmoles/min/mg protein
  Effect of replacement on disulfide-thiol interchange: without effect

B2: H152A: ABP-20 putative copper site replacement (protein, UniProt O04011 24-214, looked up, variant H152A)
Auxin-binding protein ABP20: B1 Auxin-binding protein ABP20 with A36G, H129A
[4]
  Effect of replacement on NADH oxidation: near background
  NADH Oxidation: 0.03 ± 0.01 μmoles/min/mg protein
[5]
  DTDP Interchange: 0.02 ± 0.01 μmoles/min/mg protein
  Effect of replacement on disulfide-thiol interchange: near background

B3: H106A: ABP-20 putative copper site replacement (protein, UniProt O04011 24-214, looked up, variant H106A)
Auxin-binding protein ABP20: B1 Auxin-binding protein ABP20 with A36G, H83A
[4]
  Effect of replacement on NADH oxidation: near background
  NADH Oxidation: 0.04 ± 0.01 μmoles/min/mg protein
[5]
  DTDP Interchange: 0.02 ± 0.01 μmoles/min/mg protein
  Effect of replacement on disulfide-thiol interchange: near background

B4: None (Wild Type): recombinant auxin-activated ENOX protein ABP-20 (Prunus persica), SEQ ID NO: 8, unmodified (protein, listed as Prunus persica)
chain: MPQATMIFPILFTFFLLLSSSNAAVQDFCVADLAAPEGPAGFSCKKPASVKVNDFVFSGLGIAGNTSNIIKAAVTPAFVAQFPGVNGLGISIARLDLAVGGVVPFHTHPGASEVLIVAQGTICAGFVASDNTPYLQTLEKGDIMVFPQGLLLHFQVNGGEAPALAFASFGSASPGLQILDFALFKNDLPTEVIAQTTFLDAAQIKKLKGVLGGTN
modifications: DISULFID (29)..(44); BINDING (59)..(64); BINDING (106)..(108); BINDING (113)..(113); BINDING (150)..(152)
[4]
  NADH Oxidation: 0.8 ± 0.1 μmoles/min/mg protein
[5]
  DTDP Interchange: 0.9 ± 0.05 μmoles/min/mg protein
